# Patent US10717712B2, “Pegylated prodrugs of phenolic TRPV1 agonists” (CONCENTRIC ANALGESICS, INC., priority 2018, dated 2020)
# Assay: Aqueous solubility in DI water (visual inspection)
# Assay type: physicochemical
# Details: HCl salt, incubated at 50 or 100 mg/mL
# Protocol: In order to determine the aqueous solubility of the compounds described herein, the HCl salts of the following compounds were incubated at either 50 or 100 mg/mL in DI water and visually inspected for insoluble material.
structure (smiles),measurement,value
"CNCC1CN(C(=O)CCOCCOCCOCCOC)CCN1C(=O)Oc1ccc(CNC(=O)CCCC/C=C/C(C)C)cc1OC (stereo not shown) [Compound 1, (E)-2-methoxy-4-((8-methylnon-6-enamido)methyl)phenyl 2-((methylamino)methyl)-4-(2,5,8,11-tetraoxatetradecan-14-oyl)piperazine-1-carboxylate]",solubility,> 100 mg/mL
